{"source": "paper PMC11267547", "about": "“Advancing drug discovery through assay development: a survey of tool compounds within the human solute carrier superfamily” (Frontiers in Pharmacology, 2024)", "key": {"[1]": {"target": "T1, SLC6A4 (Homo sapiens, UniProt P31645)", "T1 sequence (P31645 whole entry)": "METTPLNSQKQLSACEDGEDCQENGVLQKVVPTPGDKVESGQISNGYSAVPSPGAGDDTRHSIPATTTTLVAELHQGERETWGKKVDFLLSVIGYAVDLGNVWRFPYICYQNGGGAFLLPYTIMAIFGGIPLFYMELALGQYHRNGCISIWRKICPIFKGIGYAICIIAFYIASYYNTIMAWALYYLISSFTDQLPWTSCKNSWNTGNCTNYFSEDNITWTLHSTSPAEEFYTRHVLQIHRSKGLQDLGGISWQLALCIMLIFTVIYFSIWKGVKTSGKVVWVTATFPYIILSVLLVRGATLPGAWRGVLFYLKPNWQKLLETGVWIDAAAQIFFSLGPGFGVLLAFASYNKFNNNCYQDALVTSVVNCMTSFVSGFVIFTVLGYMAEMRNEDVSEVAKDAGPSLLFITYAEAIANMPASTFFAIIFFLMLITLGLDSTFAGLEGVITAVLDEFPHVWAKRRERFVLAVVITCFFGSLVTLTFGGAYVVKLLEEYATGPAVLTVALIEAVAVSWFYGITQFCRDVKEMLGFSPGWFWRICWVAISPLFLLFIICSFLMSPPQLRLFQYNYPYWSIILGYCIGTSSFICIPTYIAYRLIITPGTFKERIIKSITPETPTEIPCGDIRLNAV"}, "[2]": {"tested_on": "SLC2A2", "set-up": "method as in ChEMBL", "details": "SLC2A2, known data from the KNIME workflow; ref ChEMBL; cited from earlier work"}, "[3]": {"tested_on": "SLC2A3", "set-up": "method as in ChEMBL", "details": "SLC2A3, known data from the KNIME workflow; ref ChEMBL; cited from earlier work"}, "[4]": {"tested_on": "SLC2A1", "set-up": "method as in ChEMBL, PubChem", "details": "SLC2A1, known data from the KNIME workflow; ref ChEMBL, PubChem; cited from earlier work"}, "[5]": {"tested_on": "SLC2A4", "set-up": "method as in ChEMBL, PubChem", "details": "SLC2A4, known data from the KNIME workflow; ref ChEMBL, PubChem; cited from earlier work"}, "[6]": {"target": "SLC6A2 (Homo sapiens, UniProt P23975)", "sequence (P23975 whole entry)": "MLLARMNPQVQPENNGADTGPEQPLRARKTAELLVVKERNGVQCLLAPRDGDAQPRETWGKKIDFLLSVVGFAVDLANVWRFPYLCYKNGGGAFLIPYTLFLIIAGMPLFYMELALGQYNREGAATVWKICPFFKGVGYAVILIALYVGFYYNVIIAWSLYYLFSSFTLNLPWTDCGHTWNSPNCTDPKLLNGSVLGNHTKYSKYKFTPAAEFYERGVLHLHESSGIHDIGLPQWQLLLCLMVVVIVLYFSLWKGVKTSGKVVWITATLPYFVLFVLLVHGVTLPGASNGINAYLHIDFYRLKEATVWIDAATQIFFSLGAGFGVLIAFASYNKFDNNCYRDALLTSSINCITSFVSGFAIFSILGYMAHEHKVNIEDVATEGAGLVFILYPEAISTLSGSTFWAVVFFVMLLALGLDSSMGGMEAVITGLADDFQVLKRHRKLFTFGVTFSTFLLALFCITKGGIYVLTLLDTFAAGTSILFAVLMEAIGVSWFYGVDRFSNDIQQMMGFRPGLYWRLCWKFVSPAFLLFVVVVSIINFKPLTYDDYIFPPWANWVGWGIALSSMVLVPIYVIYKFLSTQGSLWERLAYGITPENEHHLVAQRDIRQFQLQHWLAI", "details": "SLC6A2, known data from the KNIME workflow; ref ChEMBL, PubChem, GtoPdb; cited from earlier work"}, "[7]": {"tested_on": "SLC6A19", "set-up": "method as in GtoPdb, pubmed 30589598", "details": "SLC6A19, known data from the KNIME workflow; ref GtoPdb, pubmed 30589598; cited from earlier work"}, "[8]": {"tested_on": "13 different SLCs (SLC1A1, SLC1A2, SLC1A3, SLC6A2, SLC6A4, SLC6A8, SLC6A9, SLC7A3, SLC9A1, SLC13A3, SLC22A3, SLC23A1, SLC6A12)", "test": "Test of selected compounds against a panel of 13 SLCs in RESOLUTE assays", "type": "cell-based, human", "details": "other tested SLCs of the 13-SLC panel; in words"}, "[9]": {"target": "T1, SLC6A4", "set-up": "expressed in transfected cells; host or cells: Jump In T-REx HEK293", "details": "SLC6A4, known data from the KNIME workflow; ref ChEMBL, PubChem, GtoPdb; cited from earlier work"}, "[10]": {"tested_on": "SLC22A2", "set-up": "method as in PMID 9260930", "details": "ChEMBL CHEMBL2076808; ref PMID 9260930; cited from earlier work"}, "[11]": {"tested_on": "SLC6A3", "set-up": "method as in ChEMBL, PubChem, GtoPdb", "details": "SLC6A3, known data from the KNIME workflow; ref ChEMBL, PubChem, GtoPdb; cited from earlier work"}, "[12]": {"tested_on": "SLC29A4", "set-up": "method as in PMID 16099839, 27506881", "details": "GtoPdb 1120; ref PMID 16099839, 27506881; cited from earlier work"}, "[13]": {"target": "SLC1A2 (Homo sapiens, UniProt P43004)", "sequence (P43004 whole entry)": "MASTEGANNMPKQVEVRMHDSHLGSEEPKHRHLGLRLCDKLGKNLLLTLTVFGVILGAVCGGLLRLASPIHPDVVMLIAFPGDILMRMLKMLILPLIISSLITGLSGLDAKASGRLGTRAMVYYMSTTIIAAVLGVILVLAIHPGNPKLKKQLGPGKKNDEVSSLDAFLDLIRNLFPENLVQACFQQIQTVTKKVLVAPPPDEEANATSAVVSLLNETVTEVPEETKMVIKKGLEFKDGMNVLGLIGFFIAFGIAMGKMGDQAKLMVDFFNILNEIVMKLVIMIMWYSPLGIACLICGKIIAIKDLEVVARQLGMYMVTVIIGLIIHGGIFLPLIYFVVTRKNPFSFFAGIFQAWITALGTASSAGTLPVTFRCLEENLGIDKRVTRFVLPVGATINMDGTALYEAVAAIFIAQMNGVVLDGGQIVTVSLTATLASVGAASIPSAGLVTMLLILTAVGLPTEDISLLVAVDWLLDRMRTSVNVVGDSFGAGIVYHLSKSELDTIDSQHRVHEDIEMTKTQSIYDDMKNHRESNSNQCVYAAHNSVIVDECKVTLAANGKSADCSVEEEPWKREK", "details": "cited from earlier work; for primary_SLC_act / SLCs_act: SLC1A2, known data from the KNIME workflow, ref ChEMBL, GtoPdb; for Literature median activity, SLC1A2: median of reported IC50, Ki, EC50, Kd values (negative log molar), ref Supplementary Table S2"}, "[14]": {"tested_on": "SLC2A9 (GLUT9)", "details": "cited from earlier work"}, "[15]": {"tested_on": "ABCG2", "set-up": "method as in Zhao et al., 2022", "details": "ref Zhao et al., 2022; cited from earlier work"}, "[16]": {"tested_on": "SLC22A12 (URAT1)", "details": "cited from earlier work"}, "[17]": {"tested_on": "NR1H4", "set-up": "method as in other_targets_pubmed_ids column", "details": "cited from earlier work"}, "[18]": {"tested_on": "HTR2B", "set-up": "method as in other_targets_pubmed_ids column", "details": "cited from earlier work"}, "[19]": {"tested_on": "SCN2A", "set-up": "method as in other_targets_pubmed_ids column", "details": "cited from earlier work"}, "[20]": {"target": "T2, SLC1A1 (Homo sapiens, UniProt P43005)", "T2 sequence (P43005 1-524)": "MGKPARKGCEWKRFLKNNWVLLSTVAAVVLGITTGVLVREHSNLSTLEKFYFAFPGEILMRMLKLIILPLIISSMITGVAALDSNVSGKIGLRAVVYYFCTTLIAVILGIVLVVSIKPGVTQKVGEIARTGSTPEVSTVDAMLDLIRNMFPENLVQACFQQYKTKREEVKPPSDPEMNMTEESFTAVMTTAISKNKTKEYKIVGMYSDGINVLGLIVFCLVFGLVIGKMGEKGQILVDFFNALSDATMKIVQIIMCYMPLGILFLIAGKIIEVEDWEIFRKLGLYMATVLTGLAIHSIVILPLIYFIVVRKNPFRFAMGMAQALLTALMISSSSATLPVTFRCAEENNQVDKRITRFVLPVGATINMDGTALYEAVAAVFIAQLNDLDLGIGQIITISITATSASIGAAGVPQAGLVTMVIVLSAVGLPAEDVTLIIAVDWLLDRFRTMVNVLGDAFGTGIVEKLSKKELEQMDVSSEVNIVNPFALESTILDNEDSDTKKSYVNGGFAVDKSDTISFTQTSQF", "details": "cited from earlier work; for primary_SLC_act / SLCs_act: SLC1A1, known data from the KNIME workflow, ref ChEMBL; for Literature median activity, SLC1A1: median of reported IC50, Ki, EC50, Kd values (negative log molar), ref Supplementary Table S2"}, "[21]": {"tested_on": "SLC6A1", "set-up": "method as in ChEMBL, GtoPdb", "details": "SLC6A1, known data from the KNIME workflow; ref ChEMBL, GtoPdb; cited from earlier work"}, "[22]": {"tested_on": "SIGMAR1", "set-up": "method as in pubmed 7990111, 9057857, 12801223", "details": "ref pubmed 7990111, 9057857, 12801223; cited from earlier work"}}}
{"smiles": "Cc1c(NC(=O)c2cc(C(N)=O)nc3cc(F)ccc23)c(C(F)(F)F)nn1Cc1ccc(C#N)cc1", "note": "[BAY-876]", "values": [{"measurement": "dose–response effect on SERT activity under glucose-free conditions", "setting": "[1]; glucose-free conditions, HEK293–JumpIn–SLC6A4 cells", "value": "could not be reproduced"}, {"measurement": "effect on SERT (SLC6A4) activity", "setting": "[1]; medium with glucose, in words", "value": "increase in SERT (SLC6A4) activity"}, {"measurement": "primary_SLC_act", "setting": "[2]", "value": 5.03}, {"measurement": "primary_SLC_act", "setting": "[3]", "value": 5.56}, {"measurement": "primary_SLC_act", "setting": "[4]", "value": 8.03}, {"measurement": "primary_SLC_act", "setting": "[5]", "value": 5.91}]}
{"smiles": "CN1C2CCC1CC(OC(c1ccccc1)c1ccccc1)C2", "note": "(stereo not drawn) [Benzotropine]", "values": [{"measurement": "primary_SLC_act / SLCs_act", "setting": "[6]", "value": 6.49}]}
{"smiles": "CCNC(=O)/C=C/c1cccc(Br)c1", "note": "[Cinromide]", "values": [{"measurement": "primary_SLC_act", "setting": "[7]", "value": 6.4}, {"measurement": "off-target activity / selectivity across the tested SLC panel", "setting": "[8]", "value": "confirm the selectivity"}]}
{"smiles": "O=S(=O)(O)c1cc(N=C=S)ccc1/C=C/c1ccc(N=C=S)cc1S(=O)(=O)O", "note": "[DIDS]", "values": [{"measurement": "off-target activity / selectivity across the tested SLC panel", "setting": "[8]", "value": "could not identify any new off-target effects"}]}
{"smiles": "COCCOc1cc(CC2CCN(CCc3ccc4c(c3)C(=O)CCO4)CC2)ccc1Br", "note": "[DSP-1053]", "values": [{"measurement": "primary_SLC_act / SLCs_act", "setting": "[9]", "value": 8.78}]}
{"smiles": "CNCCCN1c2ccccc2CCc2ccccc21", "note": "[Desipramine]", "values": [{"measurement": "primary_SLC_act, SLC22A2", "setting": "[10]", "value": 4.8}, {"measurement": "primary_SLC_act", "setting": "[11]", "value": 5.34}, {"measurement": "primary_SLC_act, SLC29A4", "setting": "[12]", "value": 4.49}]}
{"smiles": "CC(C)[C@H]1CN[C@H](C(=O)O)[C@H]1CC(=O)O", "note": "[Dihydrokainate]", "values": [{"measurement": "primary_SLC_act / SLCs_act", "setting": "[13]", "value": 4.08}]}
{"smiles": "N#Cc1ccc(Nc2cnccc2SCc2ccccc2C(=O)O)c2ccccc12", "note": "[KPH2f]", "values": [{"measurement": "primary_SLC_act", "setting": "[14]; SLC2A9, known data from the KNIME workflow, ref ChEMBL, pubmed 34998055", "value": 5.03}, {"measurement": "IC50", "setting": "[14]; ref Zhao et al., 2022", "value": 9.37, "unit": "µM"}, {"measurement": "IC50", "setting": "[15]", "value": 26.7, "unit": "µM"}, {"measurement": "primary_SLC_act, SLC22A12", "setting": "[16]; ChEMBL CHEMBL5157443, ref PMID 34998055", "value": 6.62}, {"measurement": "IC50", "setting": "[16]; ref Zhao et al., 2022", "value": 0.24, "unit": "µM"}]}
{"smiles": "CCOC(=O)N1CCC(=C2c3ccc(Cl)cc3CCc3cccnc32)CC1", "note": "[Loratadine]", "values": [{"measurement": "other_targets_act", "setting": "[17]", "value": 5.51}, {"measurement": "other_targets_act", "setting": "[18]", "value": 6.71}]}
{"smiles": "Nc1nc2ccc(OC(F)(F)F)cc2s1", "note": "[Riluzole]", "values": [{"measurement": "other_targets_act", "setting": "[19]", "value": 5.66}, {"measurement": "primary_SLC_act / SLCs_act", "setting": "[6]", "value": 5.76}]}
{"smiles": "N[C@H](C(=O)O)[C@H](OCc1cccc(NC(=O)c2ccc(C(F)(F)F)cc2)c1)C(=O)O", "note": "[TFB-TBOA]", "values": [{"measurement": "off-target activity / selectivity across the tested SLC panel", "setting": "[8]", "value": "could not identify any new off-target effects"}, {"measurement": "primary_SLC_act / SLCs_act", "setting": "[20]", "value": 6.92}, {"measurement": "Literature median activity, SLC1A1", "setting": "[20]", "value": 6.9}, {"measurement": "primary_SLC_act / SLCs_act", "setting": "[13]", "value": 7.88}, {"measurement": "Literature median activity, SLC1A2", "setting": "[13]", "value": 7.9}]}
{"smiles": "NC(C(=O)O)C(OCc1ccccc1)C(=O)O", "note": "(stereo not drawn) [Threo-beta-benzyloxyaspartic acid, Threo-beta-Benzyloxyaspartic acid]", "values": [{"measurement": "off-target activity / selectivity across the tested SLC panel", "setting": "[8]", "value": "could not identify any new off-target effects"}, {"measurement": "primary_SLC_act / SLCs_act", "setting": "[20]", "value": 5.1}, {"measurement": "primary_SLC_act / SLCs_act", "setting": "[13]", "value": 5.7}, {"measurement": "Literature median activity, SLC1A2", "setting": "[13]", "value": 5.7}]}
{"smiles": "Cc1ccsc1C(=CCCN1CCC[C@@H](C(=O)O)C1)c1sccc1C", "note": "[Tiagabine]", "values": [{"measurement": "off-target activity / selectivity across the tested SLC panel", "setting": "[8]", "value": "confirm the selectivity"}, {"measurement": "primary_SLC_act", "setting": "[21]", "value": 7.18}]}
{"smiles": "Fc1ccc(C(OCCN2CCN(CCCc3ccccc3)CC2)c2ccc(F)cc2)cc1", "note": "[Vanoxerine (GBR12909), Vanoxerine]", "values": [{"measurement": "primary_SLC_act", "setting": "[11]", "value": 8.14}, {"measurement": "primary_SLC_act / SLCs_act", "setting": "[6]", "value": 6.86}, {"measurement": "other_targets_act", "setting": "[22]", "value": 7.37}, {"measurement": "primary_SLC_act / SLCs_act", "setting": "[9]", "value": 6.74}]}
{"smiles": "N[C@@H](CC(=O)Nc1ccc(Oc2cc(F)c(F)cc2Br)cc1)C(=O)O", "note": "[WAY-213613]", "values": [{"measurement": "primary_SLC_act / SLCs_act", "setting": "[20]", "value": 5.72}, {"measurement": "Literature median activity, SLC1A1", "setting": "[20]", "value": 5.7}, {"measurement": "primary_SLC_act / SLCs_act", "setting": "[13]", "value": 7.1}]}
